Common to all, as to format: physicochemical
Series [1] can be described thus: In vitro dissolution test of Drug 5 compositions in MFD solution. More on the design: AUC90: concentration or dose not given beside the values. The following applies: for AUC / Drug 5 Concentration: Table 27; for AUC / AUC90 / Cmax90: Drug 5, MFD solution; for Drug 5 Concentration: MFD solution; for AUC90 / Cmax90: 0 to 90 min. How it is done:
(§1) For Control C2, the crystalline form of the drug alone was used without further processing. […] The tubes were placed in a 37° C. temperature-controlled bath, and 1.8 mL phosphate buffered saline (PBS) at pH 6.5 and 290 mOsm/kg was added to each. The samples were quickly mixed using a vortex mixer for about 60 seconds. The samples were centrifuged at 13,000 G at 37° C. for 1 minute. The resulting supernatant solutions were then sampled and diluted 1:6 (by volume) with methanol and then analyzed by high-performance liquid chromatography (HPLC). The contents of the tubes were mixed on the vortex mixer and allowed to stand undisturbed at 37° C. until the next sample was taken. Samples were collected at 4, 10, 20, 40, 90, and 1200 minutes.
In vitro dissolution tests were performed for Examples 28-29, using the procedure described in Example 4, with the following exceptions: 9 mg each of the dispersions of Examples 28-29 were added to separate respective centrifuge tubes. 1.8 mL of MFD solution was then added to each tube. For comparison, Control C12 was prepared consisting of 0.36 mg of crystalline Drug 5 added to 1.8 mL of MFD solution for a total theoretical concentration of 200 μg/mL if all of the drug dissolved. Drug 5 concentration in the samples was determined using HPLC. A Waters Symmetry C18 HPLC column was used with a mobile phase of 50 vol. % (0.3 vol. % glacial acetic acid, 0.2 vol. % TEA in water) and 50 vol. % acetonitrile. UV detection was measured at 260 nm.
(§2) In vitro dissolution tests were performed for Examples 35-38, using the procedures described in Example 4, with the following exceptions: 14.4 mg each of Example 35 and 36 were added to separate respective test tubes to which 1.8 mL of PBS solution was added, so that the total theoretical Drug 4 concentration was approximately 200 μg/mL if all of Drug 4 were to dissolve completely; 3.6 mg each of Examples 37 and 38 were added in separate respective test tubes to 1.8 mL of MFD solution, to provide a total theoretical Drug 5 concentration of approximately 20 μg/mL if all of Drug 5 were to dissolve completely. Drug 4 concentration in the samples was determined as in Example 33. Drug 5 concentration in the samples was determined as in Example 34.

A short description of series [2]: In vitro dissolution test of Drug 2 compositions in MFD solution. More on the design: AUC / AUC90: concentration or dose not given beside the values. The following applies: for Drug 2: MFD solution, 37° C. How it is done:
as §1
This example measures' the concentration-enhancing properties of the PVP dispersion of Example 14. Dissolution tests were performed, as described in Example 4 with the following exceptions: the PBS solution contained 7.3 mM sodium taurocholic acid and 1.4 mM 1-palmitoyl-2-oleyl-sn-glycero-3-phosphocholine (model fasted duodenal (MFD) solution). 1.8 mg of dispersion was added to 1.8 mL of test media. For Control C6, 0.18 mg of the crystalline form of the Drug 2 alone was used without further processing and added to 1.8 mL of MFD solution.

A short description of series [3]: In vitro dissolution test of Drug 3 compositions in MFD solution. To be noted: for Drug 3: MFD solution, 37° C. Set-up: AUC / AUC90: concentration or dose not given beside the values. How it is done: as §1
Dissolution tests were performed, as described in Example 4 with the following exceptions: samples were tested in MFD Solution, and 1.8 mg of dispersion was added to 1.8 mLs of MFD Solution. Control C9 was simply 0.18 mg of the crystalline Drug 3 alone add to 1.8 mL of MFD solution.

A short description of series [4]: In vitro dissolution test of Drug 4 compositions in PBS. To be noted: for AUC / [Drug 4]: Table 25; for AUC / AUC90 / Cmax90: Drug 4, PBS; for [Drug 4]: PBS; for AUC90 / Cmax90: 0 to 90 min. How it is done:
as §1
In vitro dissolution tests were performed for Examples 25-27 using the procedure described in Example 4, with the following exceptions: 14.4 mg each of the dispersions of Examples 25-27 were added to separate, respective centrifuge tubes. 1.8 mL PBS was added to each tube. For comparison, Control C11 was prepared consisting of 3.6 mg of crystalline Drug 4 added to 1.8 mL PBS. Drug 4 concentration in the samples was determined using HPLC. A Zorbax SB C18 HPLC column was used with a mobile phase of 35 vol. % water and 65 vol. % methanol. UV detection was measured at 297 nm.
as §2

Setting [5] is: Drug 2, MFD solution, 0 to 90 min.
Where [6] appears, read: Drug 3, MFD solution, 0 to 90 min.

The values below come from US9468604B2, “Pharmaceutical compositions of dispersions of drug and neutral polymers” (Bend Research, Inc., priority 2001, dated 2016).

In the case of `NC(=O)N(O)C1C=C(c2cccc(Oc3ccc(F)cc3)c2)CC1` (single isomer, unassigned; (+)) [Example C12, (+)-N-{3-[3-(4-fluorophenoxy)phenyl]-2-cyclopenten-1-yl}-N-hydroxyurea], the AUC was 0 µg·min/mL in series [1] (time 0 min); 0 µg·min/mL in series [1] (time 4 min); 100 µg·min/mL in series [1] (time 10 min); 300 µg·min/mL in series [1] (time 20 min); 800 µg·min/mL in series [1] (time 40 min); 2,200 min*μg/mL in series [1] (time 90 min). Further, the AUC in series [1] (time 1200 min) was 43,300 min*μg/mL. The “Drug 5 Concentration” value in series [1] (time 0 min) was determined as 0 µg/mL; in series [1] (time 4 min), 9 µg/mL; in series [1] (time 10 min), 15 µg/mL; in series [1] (time 20 min), 21 µg/mL; in series [1] (time 40 min), 27 µg/mL; in series [1] (time 90 min), 32 µg/mL. Moreover, the “Drug 5 Concentration” value in series [1] (time 1200 min) came out at 42 µg/mL. For the same compound, the AUC90 is listed as 2,200 min*μg/mL in series [1] (Table 28) and 2,200 in series [1] (Table 32, in min·µg/mL). The Cmax90 in series [1] (Table 28) and in series [1] (Table 32) was 32000 ng/mL each time.
Take `O=C(NC(Cc1ccccc1)C(O)CC(C(=O)NO)C1CCC(F)(F)CC1)c1cnc2ccccc2n1` (stereo not shown) [Example C6, quinoxaline-2-carboxylic acid [1-benzyl-4-(4,4-difluoro-cyclohexyl)-2-hydroxy-4-hydroxycarbamoyl-butyl]-amide]: the AUC90 in series [2] (setting [5]) was found to be 400 µg·min/mL. This compound showed a Cmax90 in series [2] (setting [5]) of 7000 ng/mL. Also, the AUC is 0 min*µg/mL in series [2] (Drug 2, MFD solution, time 0 min); 0 min*µg/mL in series [2] (Drug 2, MFD solution, time 4 min); 0 min*µg/mL in series [2] (Drug 2, MFD solution, time 10 min); 100 min*µg/mL in series [2] (Drug 2, MFD solution, time 20 min); 100 min*µg/mL in series [2] (Drug 2, MFD solution, time 40 min); 400 min*µg/mL in series [2] (Drug 2, MFD solution, time 90 min). Moreover, the “Drug 2” value in series [2] (time 0 min) was found to be 0 µg/mL; in series [2] (time 4 min), 2 µg/mL; in series [2] (time 10 min), 4 µg/mL; in series [2] (time 20 min) it was 4 µg/mL; in series [2] (time 40 min), 4 µg/mL; in series [2] (time 90 min), 7 µg/mL.
`O=C(NC(Cc1ccccc1)C(O)CC(C(=O)NO)C1(O)CCC(F)(F)CC1)c1cnc2ccccc2n1` (stereo not shown) [Example C9, quinoxaline-2-carboxylic acid [1-benzyl-4-(4,4-difluoro-1-hydroxy-cyclohexyl)-2-hydroxy-4-hydroxycarbamoyl-butyl]-amide] displayed an AUC90 in series [3] (setting [6]) of 900 µg·min/mL. This compound also had a Cmax90 in series [3] (setting [6]) of 13000 ng/mL. For the same compound, the AUC in series [3] (Drug 3, MFD solution, time 0 min) came to 0 min*µg/mL; in series [3] (Drug 3, MFD solution, time 4 min) it was 0 min*µg/mL; in series [3] (Drug 3, MFD solution, time 10 min), 0 min*µg/mL; in series [3] (Drug 3, MFD solution, time 20 min) it was 100 min*µg/mL; in series [3] (Drug 3, MFD solution, time 40 min) it was 300 min*µg/mL; in series [3] (Drug 3, MFD solution, time 90 min) it was 900 min*µg/mL. Moreover, the “Drug 3” value in series [3] (time 0 min) came out at 0 µg/mL; in series [3] (time 4 min), 4 µg/mL; in series [3] (time 10 min), 6 µg/mL; in series [3] (time 20 min) it was 8 µg/mL; in series [3] (time 40 min), 11 µg/mL; in series [3] (time 90 min) it was 13 µg/mL.
For `O=C(N[C@@H](Cc1ccccc1)[C@@H](O)C(=O)N1C[C@@H](O)[C@@H](O)C1)c1cc2cc(Cl)ccc2[nH]1` [Example C11, 5-chloro-1H-indole-2-carboxylic acid [(1S)-benzyl-3-((3R,4S)-dihydroxypyrrolidin-1-yl)-(2R)-hydroxy-3-oxypropyl]amide], the AUC was 0 µg·min/mL in series [4] (time 0 min); 300 µg·min/mL in series [4] (time 4 min); 1,000 min*μg/mL in series [4] (time 10 min); 2,200 min*μg/mL in series [4] (time 20 min); 4,500 min*μg/mL in series [4] (time 40 min); 10,300 min*μg/mL in series [4] (time 90 min). The AUC in series [4] (time 1200 min) is 120,200 min*μg/mL. In addition, the “[Drug 4]” value in series [4] (time 0 min) was determined as 0 µg/mL; in series [4] (time 4 min) it was 131 µg/mL; in series [4] (time 10 min), 114 µg/mL; in series [4] (time 20 min) it was 124 µg/mL; in series [4] (time 40 min), 107 µg/mL; in series [4] (time 90 min) it was 126 µg/mL. Further, the “[Drug 4]” value in series [4] (time 1200 min) is 72 µg/mL. The AUC90 in series [4] (Table 26) was 10,300 min*μg/mL; in series [4] (Table 31, in min·µg/mL), 10,300. Moreover, the Cmax90 in series [4] (Table 26) and in series [4] (Table 31) was 131000 ng/mL throughout.
